Measurements from patent publication US20060148776A1, “Drug formulations having long and medium chain triglycerides” (Conforma Therapeutics Corporation, priority 2003, published 2006).

Legend:
[1] = daily 1-hour infusion for 5 days every three weeks; cited from earlier work
[2] = Characterisation and storage stability of 17-AAG emulsion (droplet size, drug load, degradants); format: physicochemical
Experimental: EDTA (disodium, dihydrate, USP), sucrose, and water for injection (WFI) are weighed into a 5 L polypropylene beaker and stirred until the solids are dissolved. The aqueous phase is then added to the oil phase and thorough mixing effected using a high-speed emulsifier equipped with an emulsion head at 5000 RPM until the oil adhering to the surface is “stripped off.” Shearing rate is then increased to 10000 RPM for 2-5 minutes to obtain a uniform primary emulsion. Laser light scattering (LLS) may be used to measure the average droplet size, and the solution may further be checked, e.g., under an optical microscope to determine the relative presence or absence of crystals and solids.
The emulsion pH is adjusted to 6.0±0.2 with 0.2N NaOH. The primary emulsion is then passed through a Model 11OS microfluidizer (Microfluidics Inc., Newton, Mass., USA) operating at static pressure of about 110 psi (operating pressure of 60-95 psi) with a 75-micron emulsion interaction chamber (F20Y) for 6-8 passages until the average droplet size is ≦190 nm. LLS may be used following the individual passages to evaluate progress. The solution may further be checked for the presence of crystals using polarized light under an optical microscope.

For `C=CCNC1=C2CC(C)CC(OC)C(O)C(C)/C=C(\C)C(OC(N)=O)C(OC)/C=C\C=C(/C)C(=O)NC(=CC1=O)C2=O` (stereo not shown) [Compound 17-AAG, 17-allylaminogeldanamycin], the “maximum tolerated dose (MTD)” value [1] is listed as 40 mg/m^2, the “concentration achieved in the oil phase alone” value ([2]; oil phase alone) is listed as 20000 to 30000 µg/mL and the “time until degradants of 17-AAG are seen” value ([2]; stored at 40° C.) is listed as “approximately 2 weeks”. The concentration achieved overall ([2]; whole emulsion) was no more than 3000 µg/mL.
